Experimental data reported in patent US8198317B2, “Methylenedioxy phenolic compounds and their use to treat disease” (The Ohio State University Research Foundation, priority 2008, dated 2012).

What was measured:
Assay type in all cases: in vivo, human
Patient = test: Treatment of a patient with acute ST elevation myocardial infarction (Examples 13-15); conditions: 1.0 to 100 mg/kg intravenously
Method: A person presents with sudden chest pain typically radiating to the left arm or left side of the neck, shortness of breath, nausea and palpitation with vomiting and sweating. After being evaluated with an electrocardiogram (EKG, ECG), a chest X-ray and blood tests to detect elevations in cardiac markers (blood tests to detect heart muscle damage), they are diagnosed as suffering from acute ST elevation myocardial infarction. The patient is administered a composition comprising an effective amount of 3,4-methylenedioxy-6-nitrophenyl acetate (INV 75) (1.0 to 100 mg/kg) intravenously. The composition is optionally administered in conjunction with therapy such as thrombolytic drugs such as tissue plasminogen activator (tPA) or streptokinase and administration of aspirin, a drug to reduce the tendency of platelet aggregation, such as clopidogrel bisulfate, a statin, and/or heparin or a combination thereof, using dosages known to one of ordinary skill in the art. Patient reports improvement in the chest pain, shortness of breath and palpitations.
A person presents with sudden chest pain typically radiating to the left arm or left side of the neck, shortness of breath, nausea and palpitation with vomiting and sweating. After being evaluated with an electrocardiogram (EKG, ECG), a chest X-ray and blood tests to detect elevations in cardiac markers (blood tests to detect heart muscle damage), they are diagnosed as suffering from acute ST elevation myocardial infarction. The patient is administered a composition comprising an effective amount of 3,4-methylenedioxy-6-nitrophenyl acetate (INV 7465) (1.0 to 100 mg/kg) intravenously. […]
A person presents with sudden chest pain typically radiating to the left arm or left side of the neck, shortness of breath, nausea and palpitation with vomiting and sweating. After being evaluated with an electrocardiogram (EKG, ECG), a chest X-ray and blood tests to detect elevations in cardiac markers (blood tests to detect heart muscle damage), they are diagnosed as suffering from acute ST elevation myocardial infarction. […]

Humans [1] = test: Prevention or delay of onset of atherosclerosis in humans (Example 23); conditions: 2 mg/kg to 50 mg/kg iv or im, one to six months
Method: Individuals with documented risk factors for atherosclerosis and having high plasma cholesterol levels have a ultrasound analysis of the coronary (IVUS), carotid (IMT) or popliteal arteries to establish a baseline measurement. A portion of these individuals are […] administered a composition comprising a compound of the present invention in an acceptable carrier at a dose of 2 mg/kg to 50 mg/kg intravenously (iv) or intramuscular (im) I to 3 times per week over a period of approximately one to six months. The following compounds are administered to these individuals: 3,4-methylenedioxy phenyl acetate (INV 73); 3,4-methylenedioxy-6-nitrophenol (INV 74); 3,4-methylenedioxy-6-nitrophenyl acetate (INV 75); 3,4-Methylenedioxy 6-nitro phenyl lipoate (INV-7465) or 3,4-Methylenedioxy phenyl lipoate (INV-7065). The other individuals receive the carrier alone. A new ultrasound analysis at the end of the treatment period indicates higher levels of plaque in the vessels of individuals receiving the carrier.

Humans [2] = test: Treatment of established atherosclerosis in humans (Example 21); conditions: oral, in excess of 12 months
Excerpt: Individuals with established atherosclerosis with evidence of plaque in the coronary arteries, carotid arteries or peripheral arteries are known to be at risk for future cardiovascular events such as heart attacks and strokes. These individuals are on treatments such as statins and anti-hypertensive agents such as ACE inhibitors, diuretics or calcium channel blockers. They also will receive an acceptable dose of a composition comprising a compound of the present invention in an acceptable carrier orally and chronically for durations in excess of 12 months. In one study, 3,4-methylenedioxy phenyl acetate (INV 73); 3,4-methylenedioxy-6-nitrophenol (INV 74); 3,4-methylenedioxy-6-nitrophenyl acetate (INV 75); 3,4-Methylenedioxy 6-nitro phenyl lipoate (INV-7465) or 3,4-Methylenedioxy phenyl lipoate (INV-7065) are administered to these individuals. A repeat IVUS measurement is made at the end of the treatment period to assess the effect of the infusion of the composition on coronary atherosclerosis in the target vessel.

SMILES | chest pain, shortness of breath and palpitations (Patient) | preventing or reducing atherosclerosis (ultrasound, versus carrier alone) (Humans [1]) | plaque in the atherosclerotic coronary artery (IVUS) (Humans [2])
CC(=O)Oc1cc2c(cc1[N+](=O)[O-])OCO2 [INV-75, 3,4-methylenedioxy-6-nitrophenyl acetate] | improvement | effective | reduced
O=C(CCCCC1CCSS1)Oc1ccc2c(c1)OCO2 (stereo not drawn) [INV-7065, 3,4-Methylenedioxy phenyl lipoate] | improvement | effective | reduced
O=C(CCCCC1CCSS1)Oc1cc2c(cc1[N+](=O)[O-])OCO2 (stereo not drawn) [INV-7465, 3,4-Methylenedioxy 6-nitro phenyl lipoate] | improvement | effective | reduced
